Legend:
Assay in all cases: Test D postemergence
Assay type in all cases: in vivo
Details in all cases: scale 0 to 100
[1] = test system: speedwell (bird's-eye speedwell, Veronica persica)
Method in brief: (§1)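 Seeds planted in silt loam soil and sprayed preemergence with test chemical in a non-phytotoxic solvent mixture with surfactant; postemergence plants grown in peat/vermiculite medium and treated at 2–18 cm (1- to 4-leaf stage). Visual rating versus untreated controls after 14 to 21 days, 0 (no effect) to 100 (complete control).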

[2] = test system: oilseed rape (Brassica napus)
Method in brief: as §1

[3] = test system: green foxtail (Setaria viridis)
Method in brief: as §1

[4] = test system: chamomile (scentless chamomile, Matricaria inodora)
Method in brief: as §1

[5] = test system: winter barley (Hordeum vulgare)
Method in brief: as §1

[6] = test system: field violet (Viola arvensis)
Method in brief: as §1

[7] = test system: wild mustard (Sinapis arvensis)
Method in brief: as §1

[8] = test system: Italian ryegrass (Lolium multiflorum)
Method in brief: as §1

[9] = test system: kochia (Kochia scoparia)
Method in brief: as §1

[10] = test system: downy bromegrass (Bromus tectorum)
Method in brief: as §1

[11] = test system: lambsquarters (Chenopodium album)
Method in brief: as §1

[12] = test system: chickweed (common chickweed, Stellaria media)
Method in brief: as §1

[13] = test system: cutleaf geranium (Geranium dissectum)
Method in brief: as §1

[14] = test system: winter wheat (Triticum aestivum)
Method in brief: as §1

[15] = test system: bluegrass (annual bluegrass, Poa annua)
Method in brief: as §1

[16] = test system: blackgrass (Alopecurus myosuroides)
Method in brief: as §1

[17] = test system: wild radish (Raphanus raphanistrum)
Method in brief: as §1

[18] = test system: spring wheat (Triticum aestivum)
Method in brief: as §1

[19] = test system: field poppy (Papaver rhoeas)
Method in brief: as §1

[20] = test system: galium (catchweed bedstraw, Galium aparine)
Method in brief: as §1

[21] = test system: wild buckwheat (Polygonum convolvulus)
Method in brief: as §1

Compound: Fc1cnc(Oc2c(F)cccc2Oc2ncc(Cl)cn2)nc1 [Compound 23]
- Plant response rating, Speedwell ([1]; 16 g ai/ha): 40
- Plant response rating, Speedwell ([1]; 31 g ai/ha): 75
- Plant response rating, Speedwell ([1]; 62 g ai/ha): 100
- Plant response rating, Speedwell ([1]; 125 g ai/ha): 100
- Plant response rating, Oilseed Rape ([2]; 16 g ai/ha): 30
- Plant response rating, Oilseed Rape ([2]; 31 g ai/ha): 65
- Plant response rating, Oilseed Rape ([2]; 62 g ai/ha): 75
- Plant response rating, Oilseed Rape ([2]; 125 g ai/ha): 95
- Plant response rating, Foxtail, Green ([3]; 16 g ai/ha): 10
- Plant response rating, Foxtail, Green ([3]; 31 g ai/ha): 10
- Plant response rating, Foxtail, Green ([3]; 62 g ai/ha): 15
- Plant response rating, Foxtail, Green ([3]; 125 g ai/ha): 20
- Plant response rating, Chamomile ([4]; 16 g ai/ha): 0
- Plant response rating, Chamomile ([4]; 31 g ai/ha): 0
- Plant response rating, Chamomile ([4]; 62 g ai/ha): 0
- Plant response rating, Chamomile ([4]; 125 g ai/ha): 5
- Plant response rating, Barley, Winter ([5]; 16 g ai/ha): 0
- Plant response rating, Barley, Winter ([5]; 31 g ai/ha): 5
- Plant response rating, Barley, Winter ([5]; 62 g ai/ha): 5
- Plant response rating, Barley, Winter ([5]; 125 g ai/ha): 5
- Plant response rating, Field Violet ([6]; 16 g ai/ha): 15
- Plant response rating, Field Violet ([6]; 31 g ai/ha): 60
- Plant response rating, Field Violet ([6]; 62 g ai/ha): 60
- Plant response rating, Field Violet ([6]; 125 g ai/ha): 70
- Plant response rating, Mustard, Wild ([7]; 16 g ai/ha): 25
- Plant response rating, Mustard, Wild ([7]; 31 g ai/ha): 35
- Plant response rating, Mustard, Wild ([7]; 62 g ai/ha): 65
- Plant response rating, Mustard, Wild ([7]; 125 g ai/ha): 95
- Plant response rating, Ryegrass, Italian ([8]; 16 g ai/ha): 0
- Plant response rating, Ryegrass, Italian ([8]; 31 g ai/ha): 5
- Plant response rating, Ryegrass, Italian ([8]; 62 g ai/ha): 10
- Plant response rating, Ryegrass, Italian ([8]; 125 g ai/ha): 25
- Plant response rating, Kochia ([9]; 16 g ai/ha): 15
- Plant response rating, Kochia ([9]; 31 g ai/ha): 20
- Plant response rating, Kochia ([9]; 62 g ai/ha): 30
- Plant response rating, Kochia ([9]; 125 g ai/ha): 50
- Plant response rating, Bromegrass, Downy ([10]; 16 g ai/ha): 5
- Plant response rating, Bromegrass, Downy ([10]; 31 g ai/ha): 10
- Plant response rating, Bromegrass, Downy ([10]; 62 g ai/ha): 20
- Plant response rating, Bromegrass, Downy ([10]; 125 g ai/ha): 25
- Plant response rating, Lambsquarters ([11]; 16 g ai/ha): 10
- Plant response rating, Lambsquarters ([11]; 31 g ai/ha): 30
- Plant response rating, Lambsquarters ([11]; 62 g ai/ha): 60
- Plant response rating, Lambsquarters ([11]; 125 g ai/ha): 60
- Plant response rating, Chickweed ([12]; 16 g ai/ha): 60
- Plant response rating, Chickweed ([12]; 31 g ai/ha): 70
- Plant response rating, Chickweed ([12]; 62 g ai/ha): 70
- Plant response rating, Chickweed ([12]; 125 g ai/ha): 80
- Plant response rating, Geranium, Cutleaf ([13]; 16 g ai/ha): 25
- Plant response rating, Geranium, Cutleaf ([13]; 31 g ai/ha): 45
- Plant response rating, Geranium, Cutleaf ([13]; 62 g ai/ha): 45
- Plant response rating, Geranium, Cutleaf ([13]; 125 g ai/ha): 65
- Plant response rating, Wheat, Winter ([14]; 16 g ai/ha): 0
- Plant response rating, Wheat, Winter ([14]; 31 g ai/ha): 0
- Plant response rating, Wheat, Winter ([14]; 62 g ai/ha): 0
- Plant response rating, Wheat, Winter ([14]; 125 g ai/ha): 0
- Plant response rating, Bluegrass ([15]; 16 g ai/ha): 5
- Plant response rating, Bluegrass ([15]; 31 g ai/ha): 10
- Plant response rating, Bluegrass ([15]; 62 g ai/ha): 15
- Plant response rating, Bluegrass ([15]; 125 g ai/ha): 35
- Plant response rating, Blackgrass ([16]; 16 g ai/ha): 10
- Plant response rating, Blackgrass ([16]; 31 g ai/ha): 20
- Plant response rating, Blackgrass ([16]; 62 g ai/ha): 35
- Plant response rating, Blackgrass ([16]; 125 g ai/ha): 55
- Plant response rating, Radish, Wild ([17]; 16 g ai/ha): 25
- Plant response rating, Radish, Wild ([17]; 31 g ai/ha): 80
- Plant response rating, Radish, Wild ([17]; 62 g ai/ha): 80
- Plant response rating, Radish, Wild ([17]; 125 g ai/ha): 85
- Plant response rating, Wheat, Spring ([18]; 16 g ai/ha): 0
- Plant response rating, Wheat, Spring ([18]; 31 g ai/ha): 5
- Plant response rating, Wheat, Spring ([18]; 62 g ai/ha): 5
- Plant response rating, Wheat, Spring ([18]; 125 g ai/ha): 10
- Plant response rating, Field Poppy ([19]; 16 g ai/ha): 50
- Plant response rating, Field Poppy ([19]; 31 g ai/ha): 70
- Plant response rating, Field Poppy ([19]; 62 g ai/ha): 75
- Plant response rating, Field Poppy ([19]; 125 g ai/ha): 80
- Plant response rating, Galium ([20]; 16 g ai/ha): 65
- Plant response rating, Galium ([20]; 31 g ai/ha): 70
- Plant response rating, Galium ([20]; 62 g ai/ha): 85
- Plant response rating, Galium ([20]; 125 g ai/ha): 85
- Plant response rating, Buckwheat, Wild ([21]; 16 g ai/ha): 50
- Plant response rating, Buckwheat, Wild ([21]; 31 g ai/ha): 70
- Plant response rating, Buckwheat, Wild ([21]; 62 g ai/ha): 75
- Plant response rating, Buckwheat, Wild ([21]; 125 g ai/ha): 75

Source: US20170190671A1, “BIS(ARYL)CATECHOL DERIVATIVES AS HERBICIDES” (E I DU PONT DE NEMOURS AND COMPANY, priority 2014, published 2017)
